Legend:
Conditions in all cases: 72 h
BV-173 = system: BV-173
Outline: (§1)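 Fifteen myeloid leukaemia lines were incubated for 72 h at 37 °C with 5% CO2 across five tenfold doses from 1 to 10,000 nM, in duplicate. ATP luminescence was normalised to vehicle and to a positive control at 10 µM and fitted with a four-parameter log-logistic model. The IC50 came from these dose–response fits.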

HEL = system: HEL
Outline: as §1

HL-60 = system: HL-60
Outline: as §1

K-562 = system: K-562
Outline: as §1

KCL-22 = system: KCL-22
Outline: as §1

KG-1 = system: KG-1
Outline: as §1

KU-812 = system: KU-812
Outline: as §1

LAMA-84 = system: LAMA-84
Outline: as §1

ML-2 = system: ML-2
Outline: as §1

MOLM-13 = system: MOLM-13
Outline: as §1

Mono-Mac-6 = system: Mono-Mac-6
Outline: as §1

NOMO-1 = system: NOMO-1
Outline: as §1

SHI-1 = system: SHI-1
Outline: as §1

THP-1 = system: THP-1
Outline: as §1

[1] = system: myeloid leukemia patient primary cells Pat.10; experiment: cell viability (% survival relative to DMSO control); higher = less cytotoxic
Outline: (§2)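 Thawed, Ficoll-purified mononuclear cells from AML or CML patients in RPMI 1640 with 10% FBS were seeded at 10,000 cells/well on 384-well plates pre-printed with 70 compounds at five tenfold concentrations, 1–10,000 nM, in duplicate, for 72 h. Viability was read by CellTiter-Glo and normalised to DMSO and 10 μM proteasome-inhibitor wells. Where given, area under the curve came from four-parameter log-logistic fits (drc, PharmacoGx R packages).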

[2] = system: myeloid leukemia patient primary cells Pat.11; experiment: as above
Outline: as §2

[3] = system: myeloid leukemia patient primary cells Pat.12; experiment: as above
Outline: as §2

[4] = system: myeloid leukemia patient primary cells Pat.13; experiment: as above
Outline: as §2

[5] = system: myeloid leukemia patient primary cells Pat.14; experiment: as above
Outline: as §2

[6] = system: myeloid leukemia patient primary cells Pat.15; experiment: as above
Outline: as §2

[7] = system: myeloid leukemia patient primary cells Pat.1; experiment: as above
Outline: as §2

[8] = system: myeloid leukemia patient primary cells Pat.2; experiment: as above
Outline: as §2

[9] = system: myeloid leukemia patient primary cells Pat.3; experiment: as above
Outline: as §2

[10] = system: myeloid leukemia patient primary cells Pat.4; experiment: as above
Outline: as §2

[11] = system: myeloid leukemia patient primary cells Pat.5; experiment: as above
Outline: as §2

[12] = system: myeloid leukemia patient primary cells Pat.6; experiment: as above
Outline: as §2

[13] = system: myeloid leukemia patient primary cells Pat.7; experiment: as above
Outline: as §2

[14] = system: myeloid leukemia patient primary cells Pat.8; experiment: as above
Outline: as §2

[15] = system: myeloid leukemia patient primary cells Pat.9; experiment: as above
Outline: as §2

[16] = system: myeloid leukemia patient primary cells Pat.3; experiment: area under dose-response curve (viability, 1 nM-10 uM) (fraction (0-1)); higher = more sensitive
Description: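 AUC (0–1, higher = more sensitive) of the 5-point dose–response (1 nM–10 µM, 72 h, CellTiter-Glo) in primary AML/CML patient mononuclear cells. 0.030103 is the floor for inactive compounds.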

NS(=O)(=O)c1ccc(S(=O)(=O)Nc2cccc3c(Cl)c[nH]c23)cc1 [Indisulam]
Conditions	IC50 (cell viability) [µM]	area under dose-response curve
BV-173	0.856	–
HEL	7	–
HL-60	7.32	–
K-562	1.43	–
KCL-22	1.08	–
KG-1	0.932	–
KU-812	0.54	–
LAMA-84	0.918	–
ML-2	0.703	–
MOLM-13	0.619	–
Mono-Mac-6	0.796	–
NOMO-1	1.09	–
SHI-1	1.28	–
THP-1	> 10	–
[16]	–	0.137

cell viability [%]
Conditions	1 nM	10 nM	100 nM	1000 nM	10000 nM
[1]	55.5	64.9	97	81.4	> 100
[2]	93.9	> 100	> 100	86.3	72.1
[3]	89.5	95.5	89.6	96.9	85.2
[4]	92.6	91.3	98	57.4	44.8
[5]	75.2	84.3	85.7	62.6	66.6
[6]	90.2	90.8	75.9	79.2	44.1
[7]	94.5	> 100	94.1	65.2	48.8
[8]	> 100	88.2	95.8	96.9	67.1
[9]	84.5	> 100	> 100	72.9	34.2
[10]	91.4	87.2	86	28	9.12
[11]	47.7	70.8	62.1	17.9	12.4
[12]	99.9	98.2	> 100	81.5	63.2
[13]	93.3	77.1	91.3	43.1	21.2
[14]	89.9	91.6	97.5	79.2	55.5
[15]	47.8	84	81.1	40.9	24.6

O=C(Oc1cccc(F)c1OC(=O)c1cccc(O)c1)c1cccc(O)c1 [WZB117]
Conditions	IC50 (cell viability) [µM]	area under dose-response curve
BV-173	4.56	–
HEL	> 10	–
HL-60	9.7	–
K-562	> 10	–
KCL-22	> 10	–
KG-1	5.35	–
KU-812	3.88	–
LAMA-84	> 10	–
ML-2	5.89	–
MOLM-13	8.47	–
Mono-Mac-6	4.74	–
NOMO-1	> 10	–
SHI-1	> 10	–
THP-1	> 10	–
[16]	–	0.162

cell viability [%]
Conditions	1 nM	10 nM	100 nM	1000 nM	10000 nM
[1]	70.4	90.9	74.7	54.5	31.5
[2]	> 100	94.1	> 100	95.1	75.4
[3]	98.4	92.8	95.5	86.4	57
[4]	94.5	86.2	78.5	91	63.9
[5]	97.9	61.5	74	90.2	5.34
[6]	96.4	78.9	86.1	75.7	61.3
[7]	98	81.2	78	88.7	47.3
[8]	99.7	83.5	90.5	93.6	77.1
[9]	96.7	71.3	83	72.5	< 0
[10]	94.5	82.1	85.2	99	17.3
[11]	96.4	23.7	4.78	26.1	3.37
[12]	96.3	87.9	87.1	93.3	62.6
[13]	89.6	97.1	85.6	87.9	8.3
[14]	95.5	67.8	79.7	51.9	11
[15]	60.3	27.8	46.5	59.5	2.92
